Active and inactive are the calls of the source.
What was measured:
[1] = molecular target: T1, Ubiquitin-conjugating enzyme E2 N (Homo sapiens, UniProt P61088); type: functional;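 also: Dose-response confirmation in a TR-FRET assay detecting UBC13-driven polyubiquitin chain formation, inhibition measured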
T1 sequence (P61088 whole entry): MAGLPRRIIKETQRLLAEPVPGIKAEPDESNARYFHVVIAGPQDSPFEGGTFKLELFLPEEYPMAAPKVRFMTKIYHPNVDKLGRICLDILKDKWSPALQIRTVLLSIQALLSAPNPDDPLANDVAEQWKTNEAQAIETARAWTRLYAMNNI

[2] = molecular target: T2, DNA repair protein RAD52 homolog (Homo sapiens, UniProt P43351); type: functional, biochemical
T2 sequence (P43351 whole entry): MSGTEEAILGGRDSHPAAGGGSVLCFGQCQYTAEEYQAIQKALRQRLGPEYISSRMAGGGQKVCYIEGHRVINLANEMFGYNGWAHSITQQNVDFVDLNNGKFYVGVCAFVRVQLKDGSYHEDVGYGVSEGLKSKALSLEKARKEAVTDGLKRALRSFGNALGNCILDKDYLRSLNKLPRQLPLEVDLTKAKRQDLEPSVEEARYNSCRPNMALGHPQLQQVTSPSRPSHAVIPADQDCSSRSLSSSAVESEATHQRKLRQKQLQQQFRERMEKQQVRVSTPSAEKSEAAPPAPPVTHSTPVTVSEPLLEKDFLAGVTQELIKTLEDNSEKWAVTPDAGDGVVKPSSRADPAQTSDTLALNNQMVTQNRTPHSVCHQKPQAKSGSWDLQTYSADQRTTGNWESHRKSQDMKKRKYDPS

[3] = Concentration-dependent survival of SW480 colon cancer line, luminescence detection with CellTiter-Glo, half-maximal inhibitory concentration (AID 1117338); type: functional
[4] = RKO cell viability reduction, dose response, CellTiter-Glo luminescence (AID 1117322); type: functional
[5] = cytotoxicity toward HCT116 cells – cell-based, CellTiter-Glo luminescence, IC50, dose response (AID 1117332); type: functional; conditions: HCT-116
[6] = SNU-C1 cell viability reduction, dose response, CellTiter-Glo luminescence (AID 1117323); type: functional, cell-based
[7] = cytotoxicity toward Colo320 cells – cell-based, CellTiter-Glo luminescence, IC50, dose response (AID 1117334); type: functional; conditions: COLO 320
[8] = cytotoxicity toward HT-29 cells – cell-based, CellTiter-Glo luminescence, IC50, dose response (AID 1117330); type: functional
[9] = CellTiter-Glo luminescent dose response of DLD-1 viability loss (AID 1117352); type: functional
[10] = HCT116 cell viability decrease, GSK3B pretreatment – CellTiter-Glo, IC50, dose response (AID 1117339); type: functional; conditions: HCT-116
[11] = molecular target: T3, Estrogen receptor (Homo sapiens, UniProt P03372);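 also: potency for inhibiting coactivator peptide recruitment to the receptor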
T3 sequence (P03372 whole entry): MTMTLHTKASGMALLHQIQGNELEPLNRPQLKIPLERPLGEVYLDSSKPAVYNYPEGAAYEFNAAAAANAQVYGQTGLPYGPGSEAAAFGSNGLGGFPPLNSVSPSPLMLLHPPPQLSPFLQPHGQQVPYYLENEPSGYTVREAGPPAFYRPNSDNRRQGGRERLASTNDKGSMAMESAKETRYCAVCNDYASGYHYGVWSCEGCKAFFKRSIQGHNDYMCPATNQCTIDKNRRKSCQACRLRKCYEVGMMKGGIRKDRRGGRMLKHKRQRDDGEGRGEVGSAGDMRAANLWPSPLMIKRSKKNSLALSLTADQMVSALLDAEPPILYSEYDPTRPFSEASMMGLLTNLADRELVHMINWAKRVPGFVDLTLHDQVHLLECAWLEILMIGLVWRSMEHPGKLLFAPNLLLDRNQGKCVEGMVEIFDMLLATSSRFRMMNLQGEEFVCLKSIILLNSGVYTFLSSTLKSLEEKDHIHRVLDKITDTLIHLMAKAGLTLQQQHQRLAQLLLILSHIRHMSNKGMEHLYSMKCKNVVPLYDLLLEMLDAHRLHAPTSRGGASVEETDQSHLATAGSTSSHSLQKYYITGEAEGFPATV

[12] = molecular target: Prothrombin (Homo sapiens, UniProt P00734); assay: Thrombin 1536 HTS Dose Response Confirmation. [Related pubchem assays: 1046 (Thrombin 1536 HTS; hits were confirmed in this assay)]; type: functional
[13] = molecular target: Estrogen receptor beta (Homo sapiens, UniProt Q92731);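 also: recombinant ER-beta bound to coactivator SRC1 peptide in presence of estradiol agonist; inhibitors block coactivator peptide binding and lower the FRET signal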
Estrogen receptor beta, sequence (Q92731 whole entry): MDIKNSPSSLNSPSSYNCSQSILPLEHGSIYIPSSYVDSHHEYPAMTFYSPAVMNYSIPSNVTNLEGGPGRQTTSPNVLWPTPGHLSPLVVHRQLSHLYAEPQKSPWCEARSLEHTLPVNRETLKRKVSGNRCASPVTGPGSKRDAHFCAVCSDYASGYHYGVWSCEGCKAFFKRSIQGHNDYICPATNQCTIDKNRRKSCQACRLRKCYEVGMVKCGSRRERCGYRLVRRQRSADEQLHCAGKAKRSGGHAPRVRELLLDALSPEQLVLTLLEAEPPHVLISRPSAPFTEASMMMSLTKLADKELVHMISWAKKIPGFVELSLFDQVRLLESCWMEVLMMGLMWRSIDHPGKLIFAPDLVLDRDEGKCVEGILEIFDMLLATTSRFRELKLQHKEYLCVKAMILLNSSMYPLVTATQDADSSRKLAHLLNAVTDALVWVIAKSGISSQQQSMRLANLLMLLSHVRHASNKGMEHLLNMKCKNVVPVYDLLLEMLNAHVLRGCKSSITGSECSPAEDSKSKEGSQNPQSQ

[14] = molecular target: T4, Heat shock factor protein 1 (Mus musculus, UniProt P38532); assay: inhibition of MG132-induced HSE-luciferase signal, confirmation, cell-based, NIH3T3, luminescence, dose retest (AID 2382); type: functional;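 also: NIH3T3 fibroblasts with HSF1-driven luciferase reporter stressed by proteasome inhibitor MG132; luminescence from HSF1-driven luciferase expression after 8 hours of MG132 stress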
T4 sequence (P38532 whole entry): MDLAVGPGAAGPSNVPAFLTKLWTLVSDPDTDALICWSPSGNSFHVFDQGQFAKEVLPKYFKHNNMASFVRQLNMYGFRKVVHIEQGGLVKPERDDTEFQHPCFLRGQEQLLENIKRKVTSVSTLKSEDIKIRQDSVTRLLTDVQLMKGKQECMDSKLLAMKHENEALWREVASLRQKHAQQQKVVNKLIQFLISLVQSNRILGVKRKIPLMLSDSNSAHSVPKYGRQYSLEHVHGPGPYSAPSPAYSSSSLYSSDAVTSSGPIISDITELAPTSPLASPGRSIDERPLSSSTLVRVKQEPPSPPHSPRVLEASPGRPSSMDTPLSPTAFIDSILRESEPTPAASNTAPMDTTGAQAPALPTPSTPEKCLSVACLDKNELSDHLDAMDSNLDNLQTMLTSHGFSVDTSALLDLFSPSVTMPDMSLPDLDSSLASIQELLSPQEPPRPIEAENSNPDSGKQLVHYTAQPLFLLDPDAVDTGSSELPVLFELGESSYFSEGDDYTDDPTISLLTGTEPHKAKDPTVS

[15] = molecular target: T5, Aminopeptidase N (Plasmodium falciparum FcB1/Columbia, UniProt O96935); assay: P. falciparum M1AAP inhibitors, biochemical, fluorogenic H-Leu-NHMec substrate, 1536-well (AID 1445); set-up: species or system Plasmodium falciparum 3D7, 3D7
T5 sequence (O96935 whole entry): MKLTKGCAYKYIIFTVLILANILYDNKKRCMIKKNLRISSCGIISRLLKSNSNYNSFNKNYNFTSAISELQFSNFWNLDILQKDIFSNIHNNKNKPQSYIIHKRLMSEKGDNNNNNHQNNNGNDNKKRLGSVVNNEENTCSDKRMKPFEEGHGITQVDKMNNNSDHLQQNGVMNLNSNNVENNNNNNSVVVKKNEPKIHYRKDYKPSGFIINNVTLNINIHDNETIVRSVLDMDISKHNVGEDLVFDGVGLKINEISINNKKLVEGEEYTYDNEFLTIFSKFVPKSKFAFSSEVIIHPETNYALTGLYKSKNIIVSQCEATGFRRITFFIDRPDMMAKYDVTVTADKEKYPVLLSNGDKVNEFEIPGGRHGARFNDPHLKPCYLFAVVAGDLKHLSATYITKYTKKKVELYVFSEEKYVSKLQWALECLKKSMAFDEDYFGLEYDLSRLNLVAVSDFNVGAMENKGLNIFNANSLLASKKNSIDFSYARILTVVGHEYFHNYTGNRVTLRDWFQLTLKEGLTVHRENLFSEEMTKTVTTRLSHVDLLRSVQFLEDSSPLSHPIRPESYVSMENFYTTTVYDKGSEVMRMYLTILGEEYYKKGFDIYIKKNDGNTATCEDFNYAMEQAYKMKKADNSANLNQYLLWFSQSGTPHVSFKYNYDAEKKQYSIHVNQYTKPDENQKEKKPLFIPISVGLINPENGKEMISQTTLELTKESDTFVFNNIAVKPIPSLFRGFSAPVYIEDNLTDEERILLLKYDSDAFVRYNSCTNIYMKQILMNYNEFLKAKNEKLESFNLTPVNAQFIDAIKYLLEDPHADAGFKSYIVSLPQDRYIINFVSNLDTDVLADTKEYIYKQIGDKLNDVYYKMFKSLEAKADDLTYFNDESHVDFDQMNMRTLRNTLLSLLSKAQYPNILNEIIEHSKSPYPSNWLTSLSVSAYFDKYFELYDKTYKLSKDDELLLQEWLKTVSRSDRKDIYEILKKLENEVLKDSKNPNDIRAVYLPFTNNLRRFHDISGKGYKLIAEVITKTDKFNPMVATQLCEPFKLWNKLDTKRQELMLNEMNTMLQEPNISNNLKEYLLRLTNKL

**Q.** What does the source list for `CN1CCN(C2Cc3ccccc3Sc3ccc(Cl)cc32)CC1` (configuration not stated)?
**A.** IC50 [1]: > 20 µM (inactive); AC50 [2]: 22.5 µM (active); IC50 [3]: 6.31 µM (inactive); IC50 [4]: > 20 µM (inactive); IC50 [5]: 9.17 µM (inactive); IC50 [6]: 7.87 µM (inactive); IC50 [7]: > 6.67 µM (inactive); IC50 [8]: 8 µM (inactive); IC50 [9]: > 20 µM (inactive); IC50 [10]: 8.4 µM (inactive)

**Q.** Which IC50 [11] does the source give for `C=CCn1c(SCC(=O)NC2CCCCC2)nnc1C(C)NC(=O)c1cccs1` (configuration not stated) here?
**A.** > 50 µM (not active)

**Q.** For `Cc1nc2ccccc2c(=O)n1NC(=O)c1cc(Br)ccc1Cl`, which IC50 [12] is on record?
**A.** > 50 µM (not active)

**Q.** With `Cc1nn(Cc2ccccc2Cl)c(C)c1C(=O)NCc1ccco1` as the compound, how does the IC50 [13] read?
**A.** > 50 µM (not active)

**Q.** What does the source list for `Cc1occc1C(=O)Nc1cc(C(F)(F)F)ccc1Cl`?
**A.** EC50 [14]: > 195 µM (not active); IC50 [12]: > 50 µM (not active)

**Q.** For `Cc1ccc(-c2nc(N)n(C(=O)Cc3ccccc3)n2)cc1`, which IC50 [12] is on record?
**A.** 1.82 µM (active)

**Q.** Which IC50 [15] does the source give for `O=c1[nH]c2ccc(Br)cc2c(-c2ccccc2)c1CN1CCOCC1` here?
**A.** 54.2 µM (active)
